Measured values: patent publication US12344610B2, “APOL1 inhibitors and methods of use” (Maze Therapeutics, Inc., priority 2022, dated 2025)

These compounds were tested on human immortalized podocytes inducibly expressing APOL1 G2 (assay: APOL1 G2 podocyte cell rescue assay (Example B4)). Conditions: Homo sapiens, differentiated human podocytes, doxycycline-induced APOL1 G2, CellTiter-Glo; geometric mean of at least 2 runs; † = single run.
Type: cell-based
How it was run: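 Differentiated hTERT-immortalized podocytes (clone D10) with doxycycline-inducible C-terminally HiBiT-tagged APOL1 G2, 6,000 cells/well, treated with doxycycline plus 8-point 3-fold compound series (0.4% DMSO) for 95 h at 37 °C. Viability by CellTiter-Glo luminescence; EC50 as geometric mean of ≥2 runs, each in duplicate.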

Structure (SMILES)	EC50
CC[C@]1(O)C[C@@H](N2C(=O)CCc3cc(OCCN4CCC5(CC4)C(=O)Nc4ccc(Cl)cc45)cnc32)C1 (single isomer, unassigned) [Compound 321, 5-chloro-1′-[2-({7-oxo-8-[(cis)-3-ethyl-3-hydroxycyclobutyl]-5,6,7,8-tetrahydro-1,8-naphthyridin-3-yl}oxy)ethyl]-1,2-dihydrospiro[indole-3,4′-piperidin]-2-one]	7.65 nM
C[C@]1(O)C[C@@H](n2ncc3cc(OCCN4CCC5(CC4)C(=O)Nc4ccc(Cl)cc45)cnc32)C1 (single isomer, unassigned) [Compound 357, 5-chloro-1′-[2-({1-[(cis)-3-hydroxy-3-methylcyclobutyl]-1H-pyrazolo[3,4-b]pyridin-5-yl}oxy)ethyl]-1,2-dihydrospiro[indole-3,4′-piperidin]-2-one]	4.04 nM
CC1(O)CC(c2ncc(OCCN3CCC4(CC3)C(=O)Nc3ccc(Cl)cc34)cn2)C1 (single isomer, unassigned) [Compound 393, 5-chloro-1′-[2-({2-[(cis) or (trans)-3-hydroxy-3-methylcyclobutyl]pyrimidin-5-yl}oxy)ethyl]-1,2-dihydrospiro[indole-3,4′-piperidin]-2-one]	23 nM
C[C@]1(O)C[C@H](n2ncc3cc(OCCN4CCC5(CC4)C(=O)Nc4ccc(Cl)cc45)cnc32)C1 (single isomer, unassigned) [Compound 408, 5-chloro-1′-[2-({1-[(trans)-3-hydroxy-3-methylcyclobutyl]-1H-pyrazolo[3,4-b]pyridin-5-yl}oxy)ethyl]-1,2-dihydrospiro[indole-3,4′-piperidin]-2-one]	7.05 nM
CC(c1ncc(OCCN2CCC3(CC2)C(=O)Nc2ccc(Cl)cc23)cn1)S(C)(=O)=O (stereo not shown) [Compound 1, 5-Chloro-1′-(2-{[2-(1-methanesulfonylethyl)pyrimidin-5-yl]oxy}ethyl)-1,2-dihydrospiro[indole-3,4′-piperidin]-2-one]	18.8 nM
CS(=O)(=O)C1(c2ncc(OCCN3CCC4(CC3)C(=O)Nc3ccc(Cl)cc34)cn2)CC1 [Compound 4, 5-chloro-1′-(2-{[2-(1-methanesulfonylcyclopropyl)pyrimidin-5-yl]oxy}ethyl)-1,2-dihydrospiro[indole-3,4′-piperidin]-2-one]	9.16 nM
CC(C)[C@]1(O)C[C@@H](N2C(=O)CCc3cc(OCCN4CCC5(CC4)C(=O)Nc4ccc(Cl)cc45)cnc32)C1 [Compound 317, 5-chloro-1′-[2-({7-oxo-8-[(cis)-3-hydroxy-3-(propan-2-yl)cyclobutyl]-5,6,7,8-tetrahydro-1,8-naphthyridin-3-yl}oxy)ethyl]-1,2-dihydrospiro[indole-3,4′-piperidin]-2-one]	2.92 nM
C[C@]1(O)C[C@@H](n2c(=O)ccc3cc(OCCN4CCC5(CC4)C(=O)Nc4ccc(Cl)cc45)cnc32)C1 [Compound 323, 5-chloro-1′-[2-({7-oxo-8-[(cis)-3-hydroxy-3-methylcyclobutyl]-7,8-dihydro-1,8-naphthyridin-3-yl}oxy)ethyl]-1,2-dihydrospiro[indole-3,4′-piperidin]-2-one]	2.02 nM
CC(C)(CO)c1ncc(OCCN2CCC3(CC2)C(=O)Nc2ccc(Cl)cc23)cn1 [Compound 334, 5-chloro-1′-(2-{[2-(1-hydroxy-2-methylpropan-2-yl)pyrimidin-5-yl]oxy}ethyl)-1,2-dihydrospiro[indole-3,4′-piperidin]-2-one]	9.58 nM
C[C@]1(O)C[C@@H](N2C(=O)Cc3cc(OCCN4CCC5(CC4)C(=O)Nc4ccc(Cl)cc45)cnc32)C1 [Compound 345, 5-chloro-1′-[2-({2-oxo-1-[(cis)-3-hydroxy-3-methylcyclobutyl]-1H,2H,3H-pyrrolo[2,3-b]pyridin-5-yl}oxy)ethyl]-1,2-dihydrospiro[indole-3,4′-piperidin]-2-one]	15.8 nM
C[C@]1(O)C[C@@H](N2C(=O)Cc3cc(OCCN4CCC5(CC4)C(=O)Nc4ccc(C(F)F)cc45)cnc32)C1 [Compound 346, 5-(difluoromethyl)-1′-[2-({2-oxo-1-[(cis)-3-hydroxy-3-methylcyclobutyl]-1H,2H,3H-pyrrolo[2,3-b]pyridin-5-yl]oxy)ethyl]-1,2-dihydrospiro[indole-3,4′-piperidin]-2-one]	38.8 nM
C[C@]1(O)C[C@@H](n2ccc3cc(OCCN4CCC5(CC4)C(=O)Nc4ccc(Cl)cc45)cnc32)C1 [Compound 349, 5-chloro-1′-[2-({1-[(cis)-3-hydroxy-3-methylcyclobutyl]-1H-pyrrolo[2,3-b]pyridin-5-yl}oxy)ethyl]-1,2-dihydrospiro[indole-3,4′-piperidin]-2-one]	6.81 nM
C[C@]1(O)C[C@@H](n2ccc3cc(OCCN4CCC5(CC4)C(=O)Nc4ccc(C(F)F)cc45)cnc32)C1 [Compound 350, 5-(difluoromethyl)-1′-[2-({1-[(cis)-3-hydroxy-3-methylcyclobutyl]-1H-pyrrolo[2,3-b]pyridin-5-yl}oxy)ethyl]-1,2-dihydrospiro[indole-3,4′-piperidin]-2-one]	10.3 nM
C[C@]1(O)C[C@@H](n2cnc3cc(OCCN4CCC5(CC4)C(=O)Nc4ccc(Cl)cc45)cc(C(F)(F)F)c32)C1 [Compound 352, 5-chloro-1′-[2-({1-[(cis)-3-hydroxy-3-methylcyclobutyl]-7-(trifluoromethyl)-1H-1,3-benzodiazol-5-yl}oxy)ethyl]-1,2-dihydrospiro[indole-3,4′-piperidin]-2-one]	1.12 nM
C[C@]1(O)C[C@@H](N2C(=O)NCc3cc(OCCN4CCC5(CC4)C(=O)Nc4ccc(Cl)cc45)cnc32)C1 [Compound 356, 5-chloro-1′-[2-({2-oxo-1-[(cis)-3-hydroxy-3-methylcyclobutyl]-1H,2H,3H,4H-pyrido[2,3-d]pyrimidin-6-yl}oxy)ethyl]-1,2-dihydrospiro[indole-3,4′-piperidin]-2-one]	21.5 nM
CC(C)(O)c1ncc(OCCN2CCC3(CC2)C(=O)Nc2ccc(Cl)cc23)cc1C(F)(F)F [Compound 371, 5-chloro-1′-(2-{[6-(2-hydroxypropan-2-yl)-5-(trifluoromethyl)pyridin-3-yl]oxy}ethyl)-1,2-dihydrospiro[indole-3,4′-piperidin]-2-one]	1.1 nM
C[C@]1(O)C[C@@H](n2c(=O)oc3cc(OCCN4CCC5(CC4)C(=O)Nc4ccc(Cl)cc45)cnc32)C1 [Compound 394, 5-chloro-1′-[2-({2-oxo-3-[(cis)-3-hydroxy-3-methylcyclobutyl]-2H,3H-[1,3]oxazolo[4,5-b]pyridin-6-yl}oxy)ethyl]-1,2-dihydrospiro[indole-3,4′-piperidin]-2-one]	16.9 nM
O=C1Nc2ccc(Cl)cc2C12CCN(CCOc1cnc(N3CC4(CC(O)C4)C3)nc1)CC2 [Compound 396, 5-chloro-1′-{2-[(2-{6-hydroxy-2-azaspiro[3.3]heptan-2-yl}pyrimidin-5-yl)oxy]ethyl}-1,2-dihydrospiro[indole-3,4′-piperidin]-2-one]	18.6 nM
CCC1(O)CN(c2ncc(OCCN3CCC4(CC3)C(=O)Nc3ccc(Cl)cc34)cn2)C1 [Compound 397, 5-chloro-1′-(2-{[2-(3-ethyl-3-hydroxyazetidin-1-yl)pyrinlidin-5-yl]oxy}ethyl)-1,2-dihydrospiro[indole-3,4′-piperidin]-2-one]	14.3 nM
